Like-named read-outs stand apart in the source and are kept apart here.
Columns and labels:
DOHH2 cells = test: Cell proliferation assay (MTS), DOHH2 cells, 120 h; format: cell-based
Method in brief: (§1)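 Treatment lasts 72 h for RS4;11 and 120 h for DOHH2 cells seeded at 5000 per well in serum-containing RPMI-1640. A 2 h MTS step, halted with 10% SDS, precedes dual-wavelength absorbance reading and IC50 fitting.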

RS4;11 cells = test: Cell proliferation assay (MTS), RS4;11 cells, 72 h; format: cell-based
Method in brief: as §1

Row | IC50 (RS4;11 cells; Homo sapiens, RS4-11, 72 h) [nM] | IC50 (RS4;11 cells) [nM] | Compound | IC50 (DOHH2 cells; Homo sapiens, DOHH-2, 120 h) [nM] | IC50 (DOHH2 cells) [nM]
1 | 29 |  | COC1CCC(C[C@H]2COc3cc(S(=O)(=O)NC(=O)c4ccc(N5CCN(CC6=C(c7ccc(Cl)cc7)CC(C)(C)CC6)CC5)cc4Oc4cnc5[nH]ccc5c4)cc([N+](=O)[O-])c3N2)CC1 (stereo partly drawn) [Example 2-246B, (S)-2-((1H-pyrrolo[2,3-b]pyridin-5-yl)oxy)-4-(4-((4′-chloro-5,5-dimethyl-3,4,5,6-tetra-hydro-[1,1′-biphenyl]-2-yl)methyl)piperazin-1-yl)-N-((3-((4-methoxycyclohexyl)meth-yl)-5-nitro-3,4-dihydro-2H-benzo[b][1,4]oxa-zin-7-yl)sulfonyl)benzamide] | 13 | 
2 | 24 |  | COC1CCC([C@H]2COc3cc(S(=O)(=O)NC(=O)c4ccc(N5CCN(CC6=C(c7ccc(Cl)cc7)CC(C)(C)CC6)CC5)cc4Oc4cnc5[nH]ccc5c4)cc([N+](=O)[O-])c3N2)CC1 (some centres unmarked) [Example 2-247A] | 19 | 
3 |  | 45 | COC1CCC([C@H]2COc3cc(S(=O)(=O)NC(=O)c4ccc(N5CCN(CC6=C(c7ccc(Cl)cc7)CC(C)(C)CC6)CC5)cc4Oc4cnc5[nH]ccc5c4)cc([N+](=O)[O-])c3N2)CC1 (stereo partly drawn) [Example 2-247B, (S)-2-((1H-pyrrolo[2,3-b]pyridin-5-yl)oxy)-4-(4-((4′-chloro-5,5-dimethyl-3,4,5,6-tetra-hydro-[1,1′-biphenyl]-2-yl)methyl)piperazin-1-yl)-N-((3-(4-methoxycyclohexyl)-5-nitro-3,4-dihydro-2H-benzo[b][1,4]oxazin-7-yl)sulfonyl)benzamide] |  | 36
4 | 35 |  | COC1CCC([C@@H]2COc3cc(S(=O)(=O)NC(=O)c4ccc(N5CCN(CC6=C(c7ccc(Cl)cc7)CC(C)(C)CC6)CC5)cc4Oc4cnc5[nH]ccc5c4)cc([N+](=O)[O-])c3N2)CC1 (stereo partly drawn) [Example 2-248A, (R)-2-((1H-pyrrolo[2,3-b]pyridin-5-yl)oxy)-4-(4-((4′-chloro-5,5-dimethyl-3,4,5,6-tetra-hydro-[1,1′-biphenyl]-2-yl)methyl)piperazin-1-yl)-N-((3-(4-methoxycyclohexyl)-5-nitro-3,4-dihydro-2H-benzo[b][1,4]oxazin-7-yl)sulfonyl)benzamide] | 27 | 
5 |  | 64 | COC1CCC([C@@H]2COc3cc(S(=O)(=O)NC(=O)c4ccc(N5CCN(CC6=C(c7ccc(Cl)cc7)CC(C)(C)CC6)CC5)cc4Oc4cnc5[nH]ccc5c4)cc([N+](=O)[O-])c3N2)CC1 (stereo partly drawn) [Example 2-248B, (R)-2-((1H-pyrrolo[2,3-b]pyridin-5-yl)oxy)-4-(4-((4′-chloro-5,5-dimethyl-3,4,5,6-tetra-hydro-[1,1′-biphenyl]-2-yl)methyl)piperazin-1-yl)-N-((3-(4-methoxycyclohexyl)-5-nitro-3,4-dihydro-2H-benzo[b][1,4]oxazin-7-yl)sulfonyl)benzamide] |  | 14
6 | 1 |  | CC1(C)CCC(CN2CCN(c3ccc(C(=O)NS(=O)(=O)c4cc5c(c([N+](=O)[O-])c4)N[C@H](CO[C@H]4CC[C@H](O)CC4)CO5)c(Oc4cnc5[nH]ccc5c4)c3)CC2)=C(c2ccc(Cl)cc2)C1 [Example 2-250, 2-((1H-pyrrolo[2,3-b]pyridin-5-yl)oxy)-4-(4-((4′-chloro-5,5-dimethyl-3,4,5,6-tetrahydro-[1,1′-biphenyl]-2-yl)methyl)piperazin-1-yl)-N-(((R)-3-((((1r,4R)-4-hydroxycyclo-hexyl)oxy)methyl)-5-nitro-3,4-dihydro-2H-benzo[b][1,4]oxazin-7-yl)sulfonyl)benzamide] | 7 | 
7 | 1 |  | CO[C@H]1CC[C@H](OC[C@@H]2COc3cc(S(=O)(=O)NC(=O)c4ccc(N5CCN(CC6=C(c7ccc(Cl)cc7)CC(C)(C)CC6)CC5)cc4Oc4cnc5[nH]ccc5c4)cc([N+](=O)[O-])c3N2)CC1 [Example 2-251, 2-((1H-pyrrolo[2,3-b]pyridin-5-yl)oxy)-4-(4-((4′-chloro-5,5-dimethyl-3,4,5,6-tetrahydro-[1,1′-biphenyl]-2-yl)methyl)piperazin-1-yl)-N-(((R)-3-((((1r,4R)-4-methoxycyclohex-yl)oxy)methyl)-5-nitro-3,4-dihydro-2H-benzo[b][1,4]oxazin-7-yl)sulfonyl)benzamide] | 44 | 
8 | 29 |  | CO[C@H]1CC[C@H](OC[C@@H]2COc3cc(S(=O)(=O)NC(=O)c4ccc(N5CCN(CC6=C(c7ccc(Cl)cc7)CCC(C)(C)C6)CC5)cc4Oc4cnc5[nH]ccc5c4)cc([N+](=O)[O-])c3N2)CC1 [Example 2-252, 2-((1H-pyrrolo[2,3-b]pyridin-5-yl)oxy)-4-(4-((4′-chloro-4,4-dimethyl-3,4,5,6-tetrahydro-[1,1′-biphenyl]-2-yl)methyl)piperazin-1-yl)-N-(((R)-3-((((1r,4R)-4-methoxycyclo-hexyl)oxy)methyl)-5-nitro-3,4-dihydro-2H-benzo[b][1,4]oxazin-7-yl)sulfonyl)benzamide] | 83 | 
9 | 1 |  | CN1CCN(C[C@@H]2CSc3cc(S(=O)(=O)NC(=O)c4ccc(N5CCN(CC6=C(c7ccc(Cl)cc7)CC(C)(C)CC6)CC5)cc4Oc4cnc5[nH]ccc5c4)cc([N+](=O)[O-])c3N2)CC1 [Example 3-1, (R)-2-((1H-pyrrolo[2,3-b]pyridin-5-yl)oxy)-4-(4-((4′-chloro-5,5-dimethyl-3,4,5,6-tetrahydro-[1,1′-biphenyl]-2-yl)methyl)piperazin-1-yl)-N-((3-((4-methylpiperazin-1-yl)methyl)-5-nitro-3,4-dihydro-2H-benzo[b][1,4]thiazin-7-yl)sulfonyl)benzamide] | 3 | 
10 | 3 |  | CC1(C)CCC(CN2CCN(c3ccc(C(=O)NS(=O)(=O)c4cc5c(c([N+](=O)[O-])c4)N[C@H](CCN4CCOCC4)CS5)c(Oc4cnc5[nH]ccc5c4)c3)CC2)=C(c2ccc(Cl)cc2)C1 [Example 3-2, (R)-2-((1H-pyrrolo[2,3-b]pyridin-5-yl)oxy)-4-(4-((4′-chloro-5,5-dimethyl-3,4,5,6-tetrahydro-[1,1′-biphenyl]-2-yl)methyl)piperazin-1-yl)-N-((3-(2-morpholinoethyl)-5-nitro-3,4-dihydro-2H-benzo[b][1,4]thiazin-7-yl)sulfonyl)benzamide] | 13 | 
11 | 35 |  | CC1(C)CCC(CN2CCN(c3ccc(C(=O)NS(=O)(=O)c4cc5c(c([N+](=O)[O-])c4)N[C@H](CN4CCOCC4)CS5)c(Oc4cnc5[nH]ccc5c4)c3)CC2)=C(c2ccc(Cl)cc2)C1 [Example 3-3, (R)-2-((1H-pyrrolo[2,3-b]pyridin-5-yl)oxy)-4-(4-((4′-chloro-5,5-dimethyl-3,4,5,6-tetra-hydro-[1,1′-biphenyl]-2-yl)methyl)piperazin-1-yl)-N-((3-(morpholinomethyl)-5-nitro-3,4-dihydro-2H-benzo[b][1,4]thiazin-7-yl)sulfonyl)benzamide] | 58 | 
12 | 12 |  | CN(C)C[C@@H]1CSc2cc(S(=O)(=O)NC(=O)c3ccc(N4CCN(CC5=C(c6ccc(Cl)cc6)CC(C)(C)CC5)CC4)cc3Oc3cnc4[nH]ccc4c3)cc([N+](=O)[O-])c2N1 [Example 3-4, (R)-2-((1H-pyrrolo[2,3-b]pyridin-5-yl)oxy)-4-(4-((4′-chloro-5,5-dimethyl-3,4,5,6-tetra-hydro-[1,1′-biphenyl]-2-yl)methyl)piperazin-1-yl)-N-((3-((dimethylamino)methyl)-5-nitro-3,4-dihydro-2H-benzo[b][1,4]thiazin-7-yl)sulfonyl)benzamide] | 41 | 
13 | 8 |  | CC1(C)CCC(CN2CCN(c3ccc(C(=O)NS(=O)(=O)c4cc5c(c([N+](=O)[O-])c4)N[C@H](CO)CS5)c(Oc4cnc5[nH]ccc5c4)c3)CC2)=C(c2ccc(Cl)cc2)C1 [Example 3-5, (R)-2-((1H-pyrrolo[2,3-b]pyridin-5-yl)oxy)-4-(4-((4′-chloro-5,5-dimethyl-3,4,5,6-tetra-hydro-[1,1′-biphenyl]-2-yl)methyl)piperazin-1-yl)-N-((3-(hydroxymethyl)-5-nitro-3,4-dihydro-2H-benzo[b][1,4]thiazin-7-yl)sulfonyl) benzamide] | 12 | 
14 | 8 |  | COC[C@@H]1CSc2cc(S(=O)(=O)NC(=O)c3ccc(N4CCN(CC5=C(c6ccc(Cl)cc6)CC(C)(C)CC5)CC4)cc3Oc3cnc4[nH]ccc4c3)cc([N+](=O)[O-])c2N1 [Example 3-6, (R)-2-((1H-pyrrolo[2,3-b]pyridin-5-yl)oxy)-4-(4-((4′-chloro-5,5-dimethyl-3,4,5,6-tetra-hydro-[1,1′-biphenyl]-2-yl)methyl)piperazin-1-yl)-N-((3-(methoxymethyl)-5-nitro-3,4-dihydro-2H-benzo[b][1,4]thiazin-7-yl)sulfonyl)benzamide] | 14 | 
15 | 10 |  | CC1(C)CCC(CN2CCN(c3ccc(C(=O)NS(=O)(=O)c4cc5c(c([N+](=O)[O-])c4)N[C@@H](CO)CS5)c(Oc4cnc5[nH]ccc5c4)c3)CC2)=C(c2ccc(Cl)cc2)C1 [Example 3-7, (S)-2-((1H-pyrrolo[2,3-b]pyridin-5-yl)oxy)-4-(4-((4′-chloro-5,5-dimethyl-3,4,5,6-tetra-hydro-[1,1′-biphenyl]-2-yl)methyl)piperazin-1-yl)-N-((3-(hydroxymethyl)-5-nitro-3,4-dihydro-2H-benzo[b][1,4]thiazin-7-yl)sulfonyl) benzamide] | 31 | 
16 | 17 |  | CN(C)C[C@H]1CSc2cc(S(=O)(=O)NC(=O)c3ccc(N4CCN(CC5=C(c6ccc(Cl)cc6)CC(C)(C)CC5)CC4)cc3Oc3cnc4[nH]ccc4c3)cc([N+](=O)[O-])c2N1 [Example 3-8, (S)-2-((1H-pyrrolo[2,3-b]pyridin-5-yl)oxy)-4-(4-((4′-chloro-5,5-dimethyl-3,4,5,6-tetra-hydro-[1,1′-biphenyl]-2-yl)methyl)piperazin-1-yl)-N-((3-((dimethylamino)methyl)-5-nitro-3,4-dihydro-2H-benzo[b][1,4]thiazin-7-yl)sulfonyl)benzamide] | 67 | 
